Patent US6146554A, “Photochromic naphtopyrane colorants, method for the production and use thereof, photochromic object” (Optische Werke G. Rodenstock, priority 1997, dated 2000)
Each block holds one compound with its values, some of them ahead of it.

Columns and labels:
Type in all cases: physicochemical
[1] = Absorption maximums of the closed and open forms and colour (Table 1, FIGS. 4 and 5); details: for max closed form / max closed form (shoulder): closed (not excited) form; for max closed form: Transhade-150 test specimen, 500 ppm; for colour / max open form: open (excited) form
From the text: For illustration of the aforedescribed bathochromic shift of the inventive compounds, compared against prior art, comparative tests have been carried out.
The first three compounds in Table 1--V1, V2 and Example 3--correspond to prior art (cf. WO 96/14596); the production of V1 and V2 is described there in details.
The production of the test specimens and the measuring methodology are described in details i the Examples.
FIGS. 4 and 5 show the absorption of the closed form or the absorption of the open form, compared against the absorption of the prior art compounds V1 and V2, expressed by plotting the extinction versus the wavelength. For a better recognition of the bathochromic shift a normalisation of the absorption intensity to roughly the same value has been made in the open form.
Absorption maximums of the open and closed forms, starting out
(§1) 500 ppm of the respective photochromic dye are dissolved in the employed monomer (TRANSHADE-150 from the company of Tokuyama; index of refraction 1.52) at room temperature while stirring. After the addition of an initiator of the alkyl peroxy-ester type (1.5% by weight) degassing is performed twice and subsequently the polymerisation is carried out in correspondence with the temperature programme recommended by the Tokuyama company. The glass casting moulds are coloured in black so that the entirety of the photochromic dyes may be integrated into the matrix in a non-excited state. After completion of the polymerisation process the test specimens are additionally tempered at 100° C. for 2 hours.

[2] = Photochromy observed in solution and in the glass
Experimental: (ix) 1 g of the above reaction product is dissolved in 50 ml of absolute THF while stirring and cooled in an ice bath. Lithium aluminium hydride is added in small portions until the colour of the reaction solution does no longer brighten up. Stirring is then continued for another 10 min. and the solution is poured into water, acidified with conc. hydrochloric acid until the phases are clear whereupon the organic phase is isolated. After extraction with water, drying over sodium sulphate and removal of the solvent by rotation a brownish viscous residue remains which crystallises when methanol is added. The suspension is stirred at room temperature for some minutes more and then the precipitate is exhausted. The slightly brownish solid (0.8 g) was identified as 6-methoxy-3-(4-methoxy phenyl)-3-phenyl-13-hydroxy-benz[p]indeno[2,1-f]naphtho[1,2-b]pyrane by means of the NMR spectrum.

[3] = Brightening rate and brightening kinetics in the polymer Transhade-150; details: for Δ(10 min, 23° C.) relative brightening: within 10 min at 23° C.
Experimental: For a further illustration of the foregoing explanations comparative tests have been carried out again on the inventive compounds and on known compounds. The compounds used are derived from the compound of the following general formula: [drawing 5]
The brightening rate and the brightening kinetics were measured for differently substituted systems in the polymer Transhade-150 of the company of Tokuyama at different temperatures. The results obtained are summarised in the following, with the following terms being used:
Δ=relative brightening within 10 minutes at 23° C.
=100% (.tau.10 min-.tau.s)/(.tau.0-.tau.s)
.tau.s is the transmission achieved after 15 min of obscuration
.tau.0 is the transmission in the fully brightened condition
.tau.10 min is the transmission after 10 min brightening in the dark
T1/2 =time elapsing up to a brightening level corresponding to half the darkening level (half-period)
The brightening kinetics of differently substituted systems was determined, with R1, R2 and R3 representing either the methoxy group or hydrogen; the measurements were performed at 23° C. and 40° C.
Production of the test specimens:
as §1
Plotting of the kinetics graphs:
For the determination of the brightening rates the test specimens so produced were measured in a common kinetics test bench (irradiation with 50 klux in compliance with EN 1836, item 6.1.3.1.1). The exposure time was 15 minutes in each case, brightening takes place in the dark. During exposure and brightening the transmission graph--evaluated by the sensitivity to brightness of the human eye, V λ--is recorded. The glass temperature is controlled via a cuvette designed for being controlled by means of a thermostat.

[4] = Table 3: R1 = OCH3, R2 = R3 = H
[5] = Table 4: R1 = R3 = OCH3, R2 = H

Compound: COc1ccc(C2(c3ccccc3)C=Cc3c4c(c5ccc(OC)cc5c3O2)-c2ccc3ccccc3c2C4O)cc1 (stereo not shown) [Example 1, 6-methoxy-3-(4-methoxyphenyl)-3-phenyl-13-hydroxy-benz[p]indeno[2,1-f]naphtho[1,2-b]pyrane]
- max closed form [1]: 385 nm
- colour [1]: green
- max open form [1]: 600 nm
- photochromy colour [2]: green photochromy

Compound: COc1ccc(C2(c3ccccc3)C=Cc3c4c(c5ccc(OC)cc5c3O2)-c2ccccc2C4O)cc1 (stereo not shown) [Example 3, 6-methoxy-3-(4-methoxyphenyl)-3-phenyl-13-hydroxy-indeno[2,1-f]-naphtho[1,2-b]pyrane]
- max closed form (shoulder) [1]: 375 nm
- max closed form [1]: 360 nm
- colour [1]: blue
- max open form [1]: 575 nm

Compound: CCC1(O)c2ccccc2-c2c1c1c(c3cc(OC)ccc23)OC(c2ccccc2)(c2ccc(OC)cc2)C=C1 (stereo not shown) [Example 4, 6-methoxy-3-(4-methoxyphenyl)-3-phenyl-13-ethyl-13-hydroxy-indeno[2,1-f]naphtho[1,2-b]pyrane]
- T1/2 (40° C.) [3, 4]: 7.0 min
- Δ(10 min, 23° C.) relative brightening [3, 4]: 25%

Compound: COc1ccc(C2(c3ccccc3)C=Cc3c4c(c5ccc(OC)cc5c3O2)-c2ccccc2C4(O)c2cccc3ccccc23)cc1 (stereo not shown) [Example 6, 6-methoxy-3-(4-methoxyphenyl)-3-phenyl-13-(1-naphthyl)-13-hydroxy-indeno [2,1-f]-naphtho[1,2-b]pyrane]
- T1/2 (40° C.) [3, 4]: 5.0 min
- Δ(10 min, 23° C.) relative brightening [3, 4]: 29%

Compound: COc1ccc(C2(c3ccccc3)C=Cc3c4c(c5ccc(OC)cc5c3O2)-c2ccccc2C4(O)c2cc(C)ccc2C)cc1 (stereo not shown) [Example 8, 6-methoxy-3-(4-methoxyphenyl)-3-phenyl-13-(2,5-dimethylphenyl)-13-hydroxy-indeno[2,1-f]naphtho[1,2-b]pyrane]
- T1/2 (40° C.) [3, 4]: 4.0 min
- Δ(10 min, 23° C.) relative brightening [3, 4]: 36%

Compound: COc1ccc(C2(c3ccc(OC)cc3)C=Cc3c4c(c5ccc(C)cc5c3O2)-c2ccc(C)cc2C4O)cc1 (stereo not shown) [Example V2]
- max closed form (shoulder) [1]: 375 nm
- max closed form [1]: 350 nm
- colour [1]: blue-violet
- max open form [1]: 570 nm

Other lines, results leading:

- T1/2 (40° C.) [3, 4]: 7.0 min
- Δ(10 min, 23° C.) relative brightening [3, 4]: 22%
Compound: COc1ccc(C2(c3ccccc3)C=Cc3c4c(c5ccc(OC)cc5c3O2)-c2ccccc2C4(O)c2ccccc2)cc1 (stereo not shown) [Example 5, 13-hydroxy-6-methoxy-3-(4-methoxyphenyl)-3,13-diphenyl indeno[2,1-f]-naphtho[1,2-b]pyrane]

- T1/2 (40° C.) [3, 4]: 4.2 min
- Δ(10 min, 23° C.) relative brightening [3, 4]: 34%
Compound: COc1ccc(C2(c3ccccc3)C=Cc3c4c(c5ccc(OC)cc5c3O2)-c2ccccc2C4(O)c2ccccc2C)cc1 (stereo not shown) [Example 7]

- T1/2 (40° C.) [3, 4]: 3.4 min
- Δ(10 min, 23° C.) relative brightening [3, 4]: 38%
Compound: COc1ccc(C2(c3ccccc3)C=Cc3c4c(c5ccc(OC)cc5c3O2)-c2ccccc2C4(O)c2sccc2C)cc1 (stereo not shown) [Example 9, 6-methoxy-3-(4-methoxyphenyl)-3-phenyl-13-(3-methyl-2-thienyl)-13-hydroxy-indeno[2,1-f]naphtho[1,2-b]pyrane]

- T1/2 (40° C.) [3, 5]: 2.5 min
- Δ(10 min, 23° C.) relative brightening [3, 5]: 43%
Compound: COc1ccc(C2(c3ccc(OC)cc3)C=Cc3c4c(c5ccc(OC)cc5c3O2)-c2ccccc2C4(O)c2ccccc2)cc1 (stereo not shown) [Example V3]

- T1/2 (40° C.) [3, 5]: 2.5 min
- Δ(10 min, 23° C.) relative brightening [3, 5]: 44%
Compound: COc1ccc(C2(c3ccc(OC)cc3)C=Cc3c4c(c5ccc(OC)cc5c3O2)-c2ccccc2C4(O)c2cccc3ccccc23)cc1 (stereo not shown) [Example V4]
